Experimental data from patent US12466818B2, “Thienyl-aniline compounds for treatment of dermal disorders” (NFlection Therapeutics, Inc., priority 2018, dated 2025).

Test: Assay 4: liver S9 half-life stability assay
Type: in vitro ADME
Settings: liver S9 fraction, pH 7.4; human liver S9, 1 μM test compound, NADPH
Procedure: Compounds can be assessed for metabolic stability in human skin by assessing their rate of disappearance from human S9 skin fraction. Similarly, compounds can be assessed for metabolic stability in human liver by assessing their rate of disappearance from human S9 liver fraction. The protocol below is used to assess the difference between skin and hepatic metabolism.
The assay was carried out in 96-well microtiter plates at 37° C. Reaction mixtures (25 μL) contained a final concentration of 1 μM test compound, 2 mg/mL liver or skin protein, and 1 mM NADPH in buffer (100 mM potassium phosphate, pH 7.4 buffer with 1 mM EDTA, 3 mM MgCl2). At each of the time points (0, 15, 30, and 60 minutes), 150 μL, of quench solution (100% acetonitrile with 0.1% formic acid) with internal standard was transferred to each well. […]
All samples were analyzed on LC/MS/MS using an AB Sciex API 4000 instrument, coupled to a Shimadzu LC-20AD LC Pump system. […]
The extent of metabolism was calculated as the disappearance of the test compound, compared to the 0-min control reaction incubations. Initial rates were calculated for the compound concentration and used to determine tin values and subsequently, the intrinsic clearance, CLint=(0.693)(1/t1/2 (min)) (mL incubation/mg of S9 protein). […]

half-life at 1 μM: 0.833 to 1.67 h
SMILES: O=C1CCCc2c1sc(Nc1ccc(I)cc1F)c2C(=O)NOCCO [Compound 1.029, 2-((2-Fluoro-4-iodophenyl)amino)-N-(2-hydroxyethoxy)-7-oxo-4,5,6,7-tetrahydrobenzo[b]thiophene-3-carboxamide]
